Assay: refractive index (Na D-line) (dimensionless); xn = mol fraction of the nth substance listed
Details: 101.32 kPa, Liquid, Standard Abbe refractometry

COCCOC [1,2-dimethoxyethane] + CCO
refractive index
Details	288.15 K	298.15 K	308.15 K	318.15 K
x1 = 0.0045	1.3633	1.3592	1.3552	1.351
x1 = 0.0086	1.3634	1.3593	1.3553	1.3511
x1 = 0.0125	1.3635	1.3594	1.3554	1.3512
x1 = 0.0165	1.3636	1.3596	1.3555	1.3513
x1 = 0.0205	1.3638	1.3597	1.3557	1.3515
x1 = 0.0305	1.3642	1.3601	1.356	1.3518
x1 = 0.05	1.3649	1.3608	1.3566	1.3524
x1 = 0.1	1.3666	1.3624	1.3582	1.3539
x1 = 0.15	1.3681	1.3639	1.3596	1.3552
x1 = 0.2	1.3695	1.3652	1.3609	1.3565
x1 = 0.25	1.3709	1.3664	1.3621	1.3576
x1 = 0.3	1.3721	1.3676	1.3631	1.3586
x1 = 0.35	1.3732	1.3686	1.3641	1.3596
x1 = 0.4	1.3742	1.3696	1.3651	1.3605
x1 = 0.45	1.3751	1.3705	1.3659	1.3613
x1 = 0.5	1.376	1.3714	1.3667	1.362
x1 = 0.55	1.3768	1.3722	1.3675	1.3628
x1 = 0.6	1.3776	1.3729	1.3682	1.3634
x1 = 0.6499	1.3783	1.3736	1.3688	1.364
x1 = 0.7	1.379	1.3742	1.3694	1.3646
x1 = 0.7499	1.3796	1.3748	1.37	1.3652
x1 = 0.7999	1.3802	1.3754	1.3705	1.3657
x1 = 0.85	1.3808	1.3759	1.371	1.3661
x1 = 0.9	1.3813	1.3764	1.3715	1.3666
x1 = 0.9499	1.3818	1.3768	1.3719	1.3669
x1 = 1	1.3824	1.3772	1.3722	1.3672

COCCOCCOCCOCCOC [2,5,8,11,14-pentaoxapentadecane] + CCO
refractive index
Details	288.15 K	298.15 K	308.15 K	318.15 K
x1 = 0.0045	1.3644	1.3604	1.3564	1.3522
x1 = 0.0085	1.3656	1.3615	1.3575	1.3533
x1 = 0.0125	1.3667	1.3627	1.3586	1.3545
x1 = 0.0165	1.3678	1.3638	1.3598	1.3556
x1 = 0.0205	1.3689	1.3649	1.3608	1.3567
x1 = 0.0305	1.3714	1.3674	1.3634	1.3593
x1 = 0.05	1.376	1.372	1.368	1.3641
x1 = 0.1	1.3858	1.3819	1.3779	1.3741
x1 = 0.15	1.3936	1.3897	1.3857	1.3818
x1 = 0.2	1.3999	1.396	1.392	1.3881
x1 = 0.25	1.405	1.4011	1.3971	1.3931
x1 = 0.3	1.4093	1.4053	1.4013	1.3973
x1 = 0.35	1.4129	1.4089	1.4049	1.4009
x1 = 0.4	1.4159	1.412	1.408	1.404
x1 = 0.45	1.4186	1.4146	1.4106	1.4067
x1 = 0.5	1.4209	1.417	1.413	1.409
x1 = 0.55	1.423	1.419	1.415	1.411
x1 = 0.6	1.4248	1.4208	1.4168	1.4128
x1 = 0.6499	1.4264	1.4225	1.4184	1.4144
x1 = 0.7	1.4279	1.4239	1.4199	1.4159
x1 = 0.7498	1.4292	1.4252	1.4212	1.4172
x1 = 0.7999	1.4304	1.4264	1.4224	1.4184
x1 = 0.8499	1.4315	1.4275	1.4234	1.4194
x1 = 0.8997	1.4326	1.4285	1.4244	1.4204
x1 = 0.9496	1.4335	1.4294	1.4253	1.4213
x1 = 1	1.4344	1.4303	1.4262	1.4221

COCCOCCOCCOC [2,5,8,11-tetraoxadodecane] + CCO
refractive index
Details	288.15 K	298.15 K	308.15 K	318.15 K
x1 = 0.0045	1.3641	1.36	1.3559	1.3517
x1 = 0.0085	1.3648	1.3608	1.3567	1.3525
x1 = 0.0125	1.3656	1.3616	1.3575	1.3533
x1 = 0.0165	1.3664	1.3624	1.3583	1.3541
x1 = 0.0205	1.3672	1.3632	1.359	1.3548
x1 = 0.0305	1.3691	1.365	1.3609	1.3567
x1 = 0.05	1.3724	1.3684	1.3644	1.3602
x1 = 0.1	1.3799	1.376	1.372	1.3679
x1 = 0.15	1.3862	1.3823	1.3782	1.3741
x1 = 0.2	1.3915	1.3875	1.3834	1.3794
x1 = 0.25	1.396	1.3919	1.3879	1.3839
x1 = 0.3	1.3998	1.3958	1.3917	1.3877
x1 = 0.35	1.4032	1.3991	1.395	1.391
x1 = 0.4	1.4061	1.402	1.3979	1.3939
x1 = 0.4499	1.4087	1.4046	1.4005	1.3965
x1 = 0.5	1.411	1.4069	1.4028	1.3988
x1 = 0.55	1.4131	1.409	1.4049	1.4008
x1 = 0.6	1.4149	1.4108	1.4067	1.4026
x1 = 0.65	1.4166	1.4125	1.4084	1.4043
x1 = 0.7	1.4181	1.414	1.4099	1.4058
x1 = 0.75	1.4195	1.4154	1.4113	1.4072
x1 = 0.7999	1.4208	1.4167	1.4126	1.4084
x1 = 0.8499	1.422	1.4179	1.4137	1.4096
x1 = 0.8998	1.4231	1.4189	1.4148	1.4106
x1 = 0.9498	1.4241	1.4199	1.4158	1.4116
x1 = 1	1.425	1.4209	1.4167	1.4125

COCCOCCOC [2,5,8-trioxanonane] + CCO
refractive index
Details	288.15 K	298.15 K	308.15 K	318.15 K
x1 = 0.0045	1.3636	1.3596	1.3555	1.3514
x1 = 0.0085	1.3641	1.3601	1.356	1.3518
x1 = 0.0125	1.3645	1.3605	1.3565	1.3523
x1 = 0.0165	1.365	1.361	1.3569	1.3528
x1 = 0.0205	1.3655	1.3615	1.3574	1.3532
x1 = 0.0305	1.3666	1.3626	1.3585	1.3543
x1 = 0.05	1.3687	1.3647	1.3606	1.3564
x1 = 0.1	1.3737	1.3696	1.3654	1.3612
x1 = 0.15	1.378	1.3739	1.3697	1.3655
x1 = 0.2	1.3817	1.3776	1.3734	1.3692
x1 = 0.25	1.3851	1.381	1.3767	1.3725
x1 = 0.3	1.3881	1.3839	1.3797	1.3754
x1 = 0.35	1.3907	1.3866	1.3823	1.378
x1 = 0.4	1.3931	1.3889	1.3846	1.3803
x1 = 0.45	1.3953	1.3911	1.3867	1.3824
x1 = 0.4999	1.3973	1.3931	1.3887	1.3843
x1 = 0.55	1.399	1.3948	1.3904	1.3861
x1 = 0.5999	1.4007	1.3965	1.392	1.3877
x1 = 0.65	1.4022	1.398	1.3935	1.3892
x1 = 0.6999	1.4036	1.3993	1.3949	1.3905
x1 = 0.7499	1.4049	1.4006	1.3961	1.3917
x1 = 0.7999	1.406	1.4018	1.3973	1.3929
x1 = 0.8499	1.4072	1.4029	1.3984	1.394
x1 = 0.8998	1.4082	1.4039	1.3994	1.395
x1 = 0.9498	1.4092	1.4049	1.4003	1.3959
x1 = 1	1.4101	1.4058	1.4012	1.3968

Source: the NIST ThermoML archive (doi:10.1021/je0302304)
